Consider three compounds from patent US11649238B2, “Substituted pyrazolo[1,5-a]pyrimidines as PI4K inhibitors” (GLAXOSMITHKLINE INTELLECTUAL PROPERTY DEVELOPMENT LIMITED, priority 2018, dated 2023).

Data set [1] can be described thus: Spleen Concentration Assay. Format: in vivo. The conditions noted are these: male, Wistar Han, rat, intravenous, 1 mg/kg, intravenous infusion 1 mg/kg over 1 h, single male Wistar Han rat, 12 hours after the start of dosing. The procedure:
e) Spleen Concentration Assay Compounds 17, 18, 19, 22 and 23 were tested in this spleen accumulation assay. Compounds were administered intravenously to rats to determine what the level of the compound in the spleen would be if all of the inhaled dose was absorbed (either orally or through the lungs) and systemic circulation was exposed to the full dose. Compounds 17, 19, 22 and 23 were formulated in 2% DMSO in Kleptose (aq, 10% w/v). Compound 18 was formulated in a 5:45:50 ratio of DMSO:PEG200:water. Formulations were administered as intravenous infusions (1 mg/kg over 1 h) to a single male, Wistar Han rat. 12 hours after the start of dosing, rats were euthanised and spleens were collected. Approximately 0.5 g samples of spleen were taken and homogenised in 4 mL water. 100 μL of the resulting homogenates were prepared by protein precipitation with 300 μL of acetonitrile containing an internal standard and assayed (along with calibration standards prepared in the same manner) by reversed-phase liquid chromatography-mass spectrometry, using a heated electrospray source and operated in the positive ion multiple reaction monitoring mode. The liquid chromatography column used was a Waters Cortecs C18 2.7 μm particle size, 50×2.1 mm column at 60° C., and the mobile phase, operated as a gradient, utilised (A) 0.1% formic acid (aq) and (B) 0.1% formic acid in acetonitrile, operated at a flow rate of 1 mL/min.

The target of data set [2] is T1, human PI4KIII-beta 13-828 (D316-330) (Homo sapiens, UniProt Q9UBF8).
T1 construct: human PI4KIII-beta 13-828 (D316-330)
T1 sequence (Q9UBF8 1-801 isoform Q9UBF8-2): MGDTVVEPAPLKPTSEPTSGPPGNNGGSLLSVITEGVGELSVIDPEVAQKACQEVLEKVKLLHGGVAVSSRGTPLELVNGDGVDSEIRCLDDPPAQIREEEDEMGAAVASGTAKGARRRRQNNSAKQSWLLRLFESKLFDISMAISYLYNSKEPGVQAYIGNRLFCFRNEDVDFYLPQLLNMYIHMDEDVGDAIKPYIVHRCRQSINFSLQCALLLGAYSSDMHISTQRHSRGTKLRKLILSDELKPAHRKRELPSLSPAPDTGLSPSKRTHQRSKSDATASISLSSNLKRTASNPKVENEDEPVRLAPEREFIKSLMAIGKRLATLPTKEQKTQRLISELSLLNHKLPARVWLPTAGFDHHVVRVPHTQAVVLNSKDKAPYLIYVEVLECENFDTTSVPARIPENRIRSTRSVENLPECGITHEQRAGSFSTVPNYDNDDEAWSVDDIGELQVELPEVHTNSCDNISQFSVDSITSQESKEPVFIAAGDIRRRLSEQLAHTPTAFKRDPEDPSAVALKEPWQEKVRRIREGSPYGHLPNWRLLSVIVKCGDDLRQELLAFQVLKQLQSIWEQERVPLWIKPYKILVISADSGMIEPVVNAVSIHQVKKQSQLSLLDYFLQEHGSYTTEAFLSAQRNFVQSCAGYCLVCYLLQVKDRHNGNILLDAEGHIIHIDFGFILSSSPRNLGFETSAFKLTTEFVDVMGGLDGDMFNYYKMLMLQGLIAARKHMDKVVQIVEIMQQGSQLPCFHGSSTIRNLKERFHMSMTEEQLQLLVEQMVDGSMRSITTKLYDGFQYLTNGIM
Kind of data set: PI4 KB Activity Assay (ADP-GLO Kinase assay). It is filed as biochemical. The note with it: 1 mM ATP, 60 μM phosphatidylinositol, 3 hours at room temperature; read-out: mean pIC50 (converted). The gist of the method: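 Human PI4KIII-beta 13-828 (Δ316-330), 1.5 nM, with 1 mM ATP and 60 μM phosphatidylinositol in Hepes pH 7.5/MgCl2 buffer, 11-point titration (top 10 μM, 1% DMSO), 3 h at room temperature. ADP measured by ADP-Glo luminescence; IC50 by four-parameter fit against no-compound and no-enzyme controls.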
In general terms: ADP-Glo turns the ADP formed in a reaction into a luminescent signal.

For data set [3] the following is noted: intranasal administration, cited from earlier work; for accumulation of compound in lung tissue: rat model.

`COc1ccc(-c2c(C)nn3c(NCc4cccc(-c5nccn5C)c4)cc(C(C)(C)O)nc23)cc1C(=O)N(C)C` [Compound 23] displayed a concentration at 12 h in data set [1] of less than 7 ng/g. The IC50 in data set [2] was not above 3.98 nM.

Consider `Cc1cc(NCc2cccc(-n3cccc3)c2)n2nc(C)c(-c3ccc(Cl)c(C(=O)N(C)CCN(C)C)c3)c2n1` [GSK3159043A], for which the “accumulation of compound in lung tissue” value in data set [3] is recorded as “substantial accumulation of compound in lung tissue”. Besides, the “histological findings following IN dose” value in data set [3] (rat nasal cavity and lung) is “ulceration in the rat nasal cavity and bronchial epithelial hyperplasia in the rat lung”.

With `COc1ccc(-c2c(C)nn3c(NCc4cccc(-n5cccc5)c4)cc(OCCCN(C)C)nc23)cc1S(C)(=O)=O` [GSK3180404A], the “accumulation of compound in lung tissue” value in data set [3] is recorded as “substantial accumulation of compound in lung tissue”.
